Where “and” joins values, the source holds several entries; their conditions need not be identical. Equal values may be shown once. Read-outs that look alike come from different tables or passages of the source.
How the values were obtained:
[1] = PAMPA permeability assay; format: in vitro ADME; settings: for % Recovery / Papp at 5 h, 10 μM / recovery at 5 hr, 10 μM: PAMPA; for % Recovery / recovery at 5 hr, 10 μM: donor and acceptor compartments; for Papp at 5 h, 10 μM: pH 7, pH 7, 10 μM; for Mean Papp: pH 7, 10 μM; for Papp at 5 h, 10 μM / Mean Papp: 5 hr; for recovery at 5 hr, 10 μM: pH 7, PAMPA
[2] = test system: MRC5 cells; test: Cell viability assay in MRC5 cells (MTT)
[3] = target: T1, PDGFRβ (Homo sapiens (Human), UniProt P09619); test: PDGF-BB induced phosphorylation of PDGFRβ in fibroblasts (MRC5 cells, HTRF); format: cell-based; settings: MRC5 cells; n = 1 unless otherwise indicated; read-out: PDGFBB-induced PDGFRβ phosphorylation in MRC5 cells (IC50)
T1 sequence (P09619 33-1106): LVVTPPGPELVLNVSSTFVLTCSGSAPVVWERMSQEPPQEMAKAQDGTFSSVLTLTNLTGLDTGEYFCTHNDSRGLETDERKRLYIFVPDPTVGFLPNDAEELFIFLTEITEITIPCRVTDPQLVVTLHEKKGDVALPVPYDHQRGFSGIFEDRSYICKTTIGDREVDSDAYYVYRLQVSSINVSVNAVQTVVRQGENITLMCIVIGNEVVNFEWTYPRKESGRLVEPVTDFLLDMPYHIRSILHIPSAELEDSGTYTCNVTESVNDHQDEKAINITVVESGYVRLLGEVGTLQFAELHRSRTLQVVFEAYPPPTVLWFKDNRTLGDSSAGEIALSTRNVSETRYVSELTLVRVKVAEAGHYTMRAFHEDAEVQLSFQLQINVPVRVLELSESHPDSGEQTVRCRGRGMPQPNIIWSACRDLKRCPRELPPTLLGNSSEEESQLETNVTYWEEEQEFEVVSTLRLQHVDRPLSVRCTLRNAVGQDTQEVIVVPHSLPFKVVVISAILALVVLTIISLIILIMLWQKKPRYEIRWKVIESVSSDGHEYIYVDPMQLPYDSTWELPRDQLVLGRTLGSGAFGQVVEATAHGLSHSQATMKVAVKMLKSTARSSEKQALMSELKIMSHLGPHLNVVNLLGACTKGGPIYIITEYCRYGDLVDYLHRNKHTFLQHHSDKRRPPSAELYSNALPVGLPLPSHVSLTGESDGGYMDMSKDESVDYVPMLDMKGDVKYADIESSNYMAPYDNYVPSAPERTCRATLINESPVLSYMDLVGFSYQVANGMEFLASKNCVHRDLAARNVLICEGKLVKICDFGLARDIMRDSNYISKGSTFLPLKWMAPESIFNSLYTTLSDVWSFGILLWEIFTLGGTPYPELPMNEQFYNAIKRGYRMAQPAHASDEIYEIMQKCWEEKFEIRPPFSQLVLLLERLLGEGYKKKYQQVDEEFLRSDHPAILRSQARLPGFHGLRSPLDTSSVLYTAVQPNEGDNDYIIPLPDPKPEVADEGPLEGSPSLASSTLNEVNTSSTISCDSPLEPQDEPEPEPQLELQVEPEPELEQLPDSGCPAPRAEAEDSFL

[4] = Pharmacokinetic measurements in rats (intravenous and intra-tracheal dosing); format: in vivo; settings: rat; for concentration at 0.1 h / concentration at 1.5 h / concentration at 24 h: lung, read-out: lung concentration (nM) at time (h); for Kp at 0.1 h / Kp at 1.5 h / Kp at 24 h: lung/plasma
[5] = target: T1, PDGFRβ; settings: read-out: Ki PDGFRβ; mean, n = 2 unless otherwise indicated
[6] = target: T1, PDGFRβ; test: Duration of action (washout) against PDGF-BB induced phosphorylation of PDGFRβ in human fetal lung fibroblast cells; format: cell-based; settings: MRC-5 cells, after wash-out, rhuPDGF-BB; experiments in Groups 1-4
[7] = male, CD, iv, i.v. dosing, 0.1 h
[8] = male, CD, iv, i.v. dosing, 1.5 h
[9] = male, CD, iv, i.v. dosing, 24 h
[10] = male, CD, other: intra-tracheal, i.t. dosing, 0.1 h
[11] = male, CD, other: intra-tracheal, i.t. dosing, 1.5 h
[12] = male, CD, other: intra-tracheal, i.t. dosing, 24 h
[13] = male, CD, iv, i.v. dosing, 0.1 h, read-out: lung/plasma ratio at time(h)
[14] = male, CD, iv, i.v. dosing, 1.5 h, read-out: lung/plasma ratio at time(h)
[15] = male, CD, other: intra-tracheal, i.t. dosing, 0.1 h, read-out: lung/plasma conc ratio at time(h)
[16] = male, CD, other: intra-tracheal, i.t. dosing, 1.5 h, read-out: lung/plasma conc ratio at time(h)
[17] = male, CD, other: intra-tracheal, i.t. dosing, 24 h, read-out: lung/plasma conc ratio at time(h)

Row | Papp at 5 h, 10 μM [1] | IC50 [3] | Ki [5] | recovery at 5 hr, 10 μM [1] | SMILES | % Recovery [1] | Mean Papp [1] | Cell viability at 100 nM (%) [2] | Cell viability at 300 nM (%) [2] | Cell viability at 1000 nM (%) [2] | concentration at 0.1 h [4, 7] | concentration at 1.5 h [4, 8] | concentration at 24 h [4, 9] | concentration at 0.1 h [4, 10] | concentration at 1.5 h [4, 11] | concentration at 24 h [4, 12] | Kp at 0.1 h [4, 13] | Kp at 1.5 h [4, 14] | Kp at 0.1 h [4, 15] | Kp at 1.5 h [4, 16] | Kp at 24 h [4, 17] | further results
1 | 0.00798 ×10⁻⁶ cm/s | 25.7 nM | 32.4 nM | 75.3% | COC(=O)c1ccc2c(c1)NC(=O)/C2=C(\Nc1ccc(C(=O)NOCCN2CCC(C#N)CC2)cc1)c1ccccc1 [Example 43] |  |  | 96.5% | 91.8% | 83.9% |  |  |  |  |  |  |  |  |  |  |  | 
2 | 0.0566 ×10⁻⁶ cm/s | 9.42 nM | 9.24 nM | 179% | COC(=O)c1cc2c(cc1C)/C(=C(/Nc1ccc(C(=O)NOCCN3CCC(N(C)C)CC3)cc1)c1ccccc1)C(=O)N2 [Example 50] |  |  | 107.5% | 92.6% | 69.7% |  |  |  |  |  |  |  |  |  |  |  | 

The remaining lines, values behind:

Row | SMILES | Papp at 5 h, 10 μM [1] | IC50 [3] | Ki [5] | recovery at 5 hr, 10 μM [1] | % Recovery [1] | Mean Papp [1] | Cell viability at 100 nM (%) [2] | Cell viability at 300 nM (%) [2] | Cell viability at 1000 nM (%) [2] | concentration at 0.1 h [4, 7] | concentration at 1.5 h [4, 8] | concentration at 24 h [4, 9] | concentration at 0.1 h [4, 10] | concentration at 1.5 h [4, 11] | concentration at 24 h [4, 12] | Kp at 0.1 h [4, 13] | Kp at 1.5 h [4, 14] | Kp at 0.1 h [4, 15] | Kp at 1.5 h [4, 16] | Kp at 24 h [4, 17] | further results
3 | COC(=O)c1ccc2c(c1)NC(=O)/C2=C(\Nc1ccc(C(=O)NOCCN(C)C)cc1)c1ccccc1 [Example 3, (Z)-Methyl 3-(((4-((2-(dimethylamino)ethoxy)carbamoyl)phenyl)amino)(phenyl)methylene)-2-oxoindoline-6-carboxylate] | 0.0384 ×10⁻⁶ cm/s | 7.14 nM | 11.4 nM |  | 76% and 55.3% | 0.023 10^−6 cm s^−1 | 106% | 85.4% | 67.2% | 719 nM | 325 nM | 28 nM | 6690 nM | 1680 nM | 247 nM | 126 | 315 | 176 | 1430 | 503 | MRT ([4]; male, CD, plasma, iv, i.v. dosing): 3 h; clearance ([4]; male, CD, plasma, iv, i.v. dosing (i.v. dose 0.1-0.5 per compound)): 285 mL/min/kg; Vd ([4]; male, CD, plasma, iv, i.v. dosing, read-out: Vss): 51 L/kg; half-life ([4]; male, CD, plasma, iv, i.v. dosing, read-out: t½ (converted)): 3.1 h; Lung conc i.t./i.v. Ratio at time (h) ([4]; 0.1 h): 9.3; Lung conc i.t./i.v. Ratio at time (h) ([4]; 1.5 h): 5.2; Lung conc i.t./i.v. Ratio at time (h) ([4]; 24 h): 8.8; i.t. BAV (%) ([4]; i.t. dosing (i.t. dose 0.1-0.5 per compound)): 325%; BAL % administered dose at time (h) ([4]; i.t. dosing, 0.1 h): 3%; BAL % administered dose at time (h) ([4]; i.t. dosing, 1.5 h): 0.3%; BAL % administered dose at time (h) ([4]; i.t. dosing, 24 h): 0.1%; BAL % administered dose at time (h) ([4]; i.v. dosing, 0.1 h): 0.03%; BAL % administered dose at time (h) ([4]; i.v. dosing, 1.5 h): 0.02%; BAL % administered dose at time (h) ([4]; i.v. dosing, 24 h): BLQ; % phos: percentage phosphorylation after wash-out relative to maximal phosphorylation (100%) [6]: 34.6%
4 | COC(=O)c1ccc2c(c1)NC(=O)/C2=C(\Nc1ccc(S(=O)(=O)NOCCN(C)C)cc1)c1ccccc1 [Example 15] | 0.0756 ×10⁻⁶ cm/s | 19.9 nM | 21.7 nM | 37.6% |  |  | 106.9% | 99% | 97.5% | 501 nM | 209 nM | 66 nM | 3430 nM | 1370 nM | 135 nM | 55 | 62 | 177 | 884 | 314 | Kp at 24 h ([4]; male, CD, iv, i.v. dosing, 24 h, read-out: lung/plasma ratio at time(h)): 103; Lung conc i.t./i.v. Ratio at time (h) ([4]; 0.1 h): 6.9; Lung conc i.t./i.v. Ratio at time (h) ([4]; 1.5 h): 6.6; Lung conc i.t./i.v. Ratio at time (h) ([4]; 24 h): 2.0; BAL % administered dose at time (h) ([4]; i.t. dosing, 0.1 h): 2.4%; BAL % administered dose at time (h) ([4]; i.t. dosing, 1.5 h): 0.6%; BAL % administered dose at time (h) ([4]; i.t. dosing, 24 h): 0.1%; BAL % administered dose at time (h) ([4]; i.v. dosing, 0.1 h): 0.09%; BAL % administered dose at time (h) ([4]; i.v. dosing, 1.5 h): 0.02%; BAL % administered dose at time (h) ([4]; i.v. dosing, 24 h): 0.01%
5 | COC(=O)c1cc2c(cc1C)/C(=C(/Nc1ccc(C(=O)NOCCN3CCCCC3)cc1)c1ccccc1)C(=O)N2 [Example 49] | 0.0768 ×10⁻⁶ cm/s | 40.2 nM | 31.1 nM | 75.2% |  |  | 124.5% | 110.8% | 69.4% |  |  |  |  |  |  |  |  |  |  |  | 
6 | COC(=O)c1cc2c(cc1C)/C(=C(/Nc1ccc(C(=O)NOCCN3CC[C@H](N(C)C)C3)cc1)c1ccccc1)C(=O)N2 [Example 51] | 0.00306 ×10⁻⁶ cm/s | 9.39 nM | 9.44 nM | 62% | 74.7% | 0.00474 10^−6 cm s^−1 | 86.5% | 85.8% | 71.2% |  |  |  |  |  |  |  |  |  |  |  | 

— patent US11046672B2, “Indolinones compounds and their use in the treatment of fibrotic diseases” (RESPIVERT LIMITED, priority 2015, dated 2021)
